Experiments:
Format in all cases: cell-based
vitamin D receptor [VDR] = target: T1, vitamin D receptor [VDR] (Homo sapiens, UniProt P11473); test: Gal4 hybrid reporter gene assay VDR (selectivity profiling)
T1 construct: expressed in transfected cells; host or cells: HEK293T
T1 sequence (P11473 127-423 limits assumed): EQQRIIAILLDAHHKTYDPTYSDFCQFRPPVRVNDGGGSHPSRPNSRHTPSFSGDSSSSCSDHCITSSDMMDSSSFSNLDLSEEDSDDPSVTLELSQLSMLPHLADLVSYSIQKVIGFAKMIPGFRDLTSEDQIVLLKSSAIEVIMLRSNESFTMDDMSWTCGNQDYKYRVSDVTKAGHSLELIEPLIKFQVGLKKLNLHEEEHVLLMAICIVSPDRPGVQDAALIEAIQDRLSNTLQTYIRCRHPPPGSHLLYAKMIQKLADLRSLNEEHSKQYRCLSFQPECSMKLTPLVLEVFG
Protocol: (§1) Moreover, 7 was characterized for its ability to modulate RXR target gene expression under more physiological conditions. Hepatoma cells (HepG2) were incubated with 7 (30 µM) or reference RXR agonist bexarotene (9, 1 µM) for eight hours and mRNA expression of RXR regulated genes ATP-binding cassette transporter A1 (ABCA1), angiopoietin like protein 4 (ANGPTL4) and apolipoprotein E (ApoE) was analysed by quantitative real-time PCR.
(§2) The Gal4 hybrid reporter gene assays were conducted as reported previously[39]–[41]. pFA-CMV-based constructs comprising the ligand binding domain of the human nuclear receptor in question were used as expression plasmids for the chimera receptors. pFR-Luc (Stratagene) served as reporter plasmid and pRL-SV40 (Promega) for normalization of transfection efficiency and cell growth. The assays were conducted in 96-well format in HEK293T cells that were cultured as described previously[39]–[41]. Transient transfection was carried out using Lipofectamine LTX reagent (Invitrogen) according to the manufacturer’s protocol. After transfection and incubation with test compounds (12–14 h), cells were assayed for luciferase activity using Dual-Glo™ Luciferase Assay System (Promega) according to the manufacturer’s protocol. Luminescence was measured with an Infinite M200 luminometer (Tecan Deutschland GmbH). […]

RARγ = target: T2, RARγ (Homo sapiens, UniProt P13631); test: Gal4 hybrid reporter gene assay RARγ (selectivity profiling)
T2 construct: expressed in transfected cells; host or cells: HEK293T
T2 sequence (P13631 185-419 limits assumed): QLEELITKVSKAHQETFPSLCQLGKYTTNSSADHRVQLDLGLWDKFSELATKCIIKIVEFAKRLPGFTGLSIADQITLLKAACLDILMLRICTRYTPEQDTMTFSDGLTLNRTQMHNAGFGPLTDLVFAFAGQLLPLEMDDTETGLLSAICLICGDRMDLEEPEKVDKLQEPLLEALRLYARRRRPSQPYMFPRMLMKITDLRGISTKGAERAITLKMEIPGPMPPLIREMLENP
Protocol: as §1, §2

[1] = tested on: ATP-binding cassette transporter A1 (ABCA1) mRNA in HepG2 cells; test: Target gene quantification (quantitative real-time PCR), ABCA1; conditions: HepG2, 7 at 30 µM versus bexarotene at 1 µM, 8 h, qRT-PCR
Protocol: as §1
HepG2 cells were incubated with test compound 7 (30 µM) or bexarotene (1 µM) as positive control each dissolved in 0.1% DMSO or 0.1% DMSO alone as untreated control for 8 h, harvested, washed with cold phosphate buffered saline (PBS) and then directly used for RNA extraction with the Total RNA Mini Kit (R6834-02, Omega Bio-Tek, Inc., Norcross, GA, USA). 2 µg RNA were reverse-transcribed into cDNA using the High-Capacity cDNA Reverse Transcription Kit (4368814, Thermo Fischer Scientific, Inc.). RXR target gene expression was evaluated by quantitative real time PCR analysis with a StepOnePlus™ System (Life Technologies, Carlsbad, CA, USA) using PowerSYBRGreen (Life Technologies; 12.5 µl per well) and the primers reported in Supplementary Table 4[58]. […] The expression was quantified by the comparative ∆∆Ct method. […] Results are expressed as mean ± standard error of the mean (SEM) relative mRNA expression compared to DMSO (0.1%) control which was set as 1.

[2] = target: T3, pregnane X receptor [PXR] (Homo sapiens, UniProt O75469); test: Gal4 hybrid reporter gene assay PXR (selectivity profiling)
T3 construct: expressed in transfected cells; host or cells: HEK293T
T3 sequence (O75469 146-433 limits assumed): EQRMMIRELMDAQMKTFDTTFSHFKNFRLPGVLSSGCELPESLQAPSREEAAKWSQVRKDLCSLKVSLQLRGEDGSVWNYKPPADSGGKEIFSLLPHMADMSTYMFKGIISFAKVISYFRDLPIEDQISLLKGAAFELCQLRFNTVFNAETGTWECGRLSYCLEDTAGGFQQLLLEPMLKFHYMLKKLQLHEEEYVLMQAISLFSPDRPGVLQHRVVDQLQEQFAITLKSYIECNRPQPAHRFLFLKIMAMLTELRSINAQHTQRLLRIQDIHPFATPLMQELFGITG
Protocol: as §1, §2

[3] = tested on: Gal4-responsive reporter gene; test: Control experiment without Gal4-RXR hybrid receptor (reporter gene construct and renilla luciferase only)
Protocol: as §1, §2

LXRα = target: T4, LXRα (Homo sapiens, UniProt Q13133); test: Gal4 hybrid reporter gene assay LXRα (selectivity profiling)
T4 construct: expressed in transfected cells; host or cells: HEK293T
T4 sequence (Q13133 209-447 limits assumed): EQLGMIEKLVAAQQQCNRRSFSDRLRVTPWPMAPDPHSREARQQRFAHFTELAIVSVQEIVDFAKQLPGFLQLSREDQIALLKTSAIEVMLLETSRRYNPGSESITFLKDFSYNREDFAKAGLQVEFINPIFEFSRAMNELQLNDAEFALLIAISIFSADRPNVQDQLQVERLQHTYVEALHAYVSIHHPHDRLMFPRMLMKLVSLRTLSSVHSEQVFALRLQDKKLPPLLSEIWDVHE
Protocol: as §1, §2

PPARγ = target: T5, PPARγ (Homo sapiens, UniProt P37231); test: Gal4 hybrid reporter gene assay PPARγ (selectivity profiling)
T5 construct: expressed in transfected cells; host or cells: HEK293T
T5 sequence (P37231 238-503 limits assumed): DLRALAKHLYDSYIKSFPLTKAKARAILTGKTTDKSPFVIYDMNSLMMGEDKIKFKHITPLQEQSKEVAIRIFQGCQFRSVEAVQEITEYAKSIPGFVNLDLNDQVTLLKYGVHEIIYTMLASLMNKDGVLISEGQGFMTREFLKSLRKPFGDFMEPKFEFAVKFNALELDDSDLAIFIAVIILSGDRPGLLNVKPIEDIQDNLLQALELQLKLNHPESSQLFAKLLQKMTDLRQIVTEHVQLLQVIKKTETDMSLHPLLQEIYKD
Protocol: as §1, §2

- activity on VDR (vitamin D receptor [VDR]): no activity
- activity on RARγ (RARγ): no activity
- activity on PXR [2]: no activity
- reporter transactivation without hybrid receptor [3]: no reporter transactivation
- activity on LXRα (LXRα): no activity
- activity on PPARγ (PPARγ): no activity
SMILES: CC(C)(C)c1cc(/C=N/NC(=O)c2ccc(N)cc2)cc(C(C)(C)C)c1 [Compound 7]
- induction of ABCA1 mRNA expression [1]: comparable efficacy as RXR agonist bexarotene

Reference: paper PMC6220272, “Scaffold-Hopping from Synthetic Drugs by Holistic Molecular Representation” (Scientific Reports, 2018)
